pIC50: −log10 of the molar value.
target: His-tagged recombinant human TrkA (Homo sapiens (Human), UniProt P04629); assay: TrkA LanthaScreen Eu Kinase Binding Assay; details: averaged IC50; TR-FRET binding, 60 min, 22° C.; read-out: TrkA Enzyme IC50
Experimental: TrkA binding activity was determined in a TrkA LanthaScreen™ Eu Kinase Binding Assay. 5 nM His-tagged recombinant human TrkA (6HIS tagged cytoplasmic domain from Invitrogen, Catalog No. PV3144) was incubated with 4 nM Alexa-Fluor® Tracer 236 (Invitrogen Cat. No. PV5592), 2 nM biotinylated anti-His (Invitrogen Cat. No. PV6090), and 2 nM europium-labeled Streptavidin (Invitrogen Cat. No. PV5899), in buffer (25 mM MOPS, pH 7.5, 5 mM MgCl2, 0.005% Triton X-100). Three fold serial dilutions of compounds of the invention in DMSO were added to a final percentage of 2% DMSO. After 60-minute incubation at 22° C., the reaction was measured using the EnVision mutlimode plate reader (PerkinElmer) via TR-FRET dual wavelength detection at […]. The percent of control was calculated using a ratiometric emission factor. The IC50 values were determined by fitting a four parameter model to the percent of control data.

Chain of His-tagged recombinant human TrkA (P04629 440-796): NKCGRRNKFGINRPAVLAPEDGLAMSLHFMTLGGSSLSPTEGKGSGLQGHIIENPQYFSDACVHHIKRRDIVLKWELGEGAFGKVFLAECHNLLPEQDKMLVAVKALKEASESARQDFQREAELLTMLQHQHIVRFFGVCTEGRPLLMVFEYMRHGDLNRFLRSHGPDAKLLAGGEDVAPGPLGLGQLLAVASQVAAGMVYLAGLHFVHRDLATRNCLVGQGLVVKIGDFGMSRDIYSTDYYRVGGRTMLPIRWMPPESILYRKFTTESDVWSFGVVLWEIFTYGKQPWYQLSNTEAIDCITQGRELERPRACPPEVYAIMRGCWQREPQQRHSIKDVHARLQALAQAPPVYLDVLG

Row | pIC50 | Structure (SMILES)
1 | > 7.00 | Cc1c(-c2cnn(C)c2)nn(-c2ccccc2)c1NC(=O)N[C@@H]1c2ccccc2C2(CC2)[C@H]1O (relative stereo) [Example 55, 1-(1′,4-dimethyl-1-phenyl-1H,1′H-[3,4′-bipyrazol]-5-yl)-3-(trans-2′-hydroxy-2′,3′-dihydrospiro[cyclopropane-1,1′-inden]-3′-yl)urea]
2 | > 7.00 | Cc1ncc(-c2nn(-c3ccccc3)c(NC(=O)N[C@@H]3c4ccccc4C4(CC4)[C@H]3O)c2C)cn1 (relative stereo) [Example 56, 1-(trans-2′-hydroxy-2′,3′-dihydrospiro[cyclopropane-1,1′-inden]-3′-yl)-3-(4-methyl-3-(2-methylpyrimidin-5-yl)-1-phenyl-1H-pyrazol-5-yl)urea]
3 | > 7.00 | COc1ncc(-c2nn(-c3ccccc3)c(NC(=O)N[C@@H]3c4ccccc4C4(CC4)[C@H]3O)c2C)cn1 (relative stereo) [Example 57, 1-(trans-2′-hydroxy-2′,3′-dihydrospiro[cyclopropane-1,1′-inden]-3′-yl)-3-(3-(2-methoxypyrimidin-5-yl)-4-methyl-1-phenyl-1H-pyrazol-5-yl)urea]
4 | > 7.00 | Cc1c(-c2cnn(C)c2)nn(-c2ccccc2)c1NC(=O)N[C@@H]1c2cc(F)c(F)cc2C2(CC2)[C@H]1O (relative stereo) [Example 58, 1-(trans-5′,6′-difluoro-2′-hydroxy-2′,3′-dihydrospiro[cyclopropane-1,1′-inden]-3′-yl)-3-(1′,4-dimethyl-1-phenyl-1H,1′H-[3,4′-bipyrazol]-5-yl)urea]
5 | > 7.00 | COc1nn(-c2ccccc2)c(NC(=O)N[C@@H]2c3ccccc3C3(CC3)[C@H]2O)c1C (relative stereo) [Example 60, 1-(trans-2′-hydroxy-2′,3′-dihydrospiro[cyclopropane-1,1′-inden]-3-yl)-3-(3-methoxy-4-methyl-1-phenyl-1H-pyrazol-5-yl)urea]
6 | > 7.00 | CCOc1nn(-c2ccccc2)c(NC(=O)N[C@@H]2c3ccccc3C3(CC3)[C@H]2O)c1C (relative stereo) [Example 61, 1-(3-ethoxy-4-methyl-1-phenyl-1H-pyrazol-5-yl)-3-(trans-2′-hydroxy-2′,3′-dihydrospiro[cyclopropane-1,1-inden]-3-yl)urea]
7 | > 7.00 | COc1nn(-c2ccccc2)c(NC(=O)N[C@@H]2c3cc(F)c(F)cc3C3(CC3)[C@H]2O)c1C (relative stereo) [Example 62, 1-(trans-5′,6′-difluoro-2′-hydroxy-2′,3′-dihydrospiro[cyclopropane-1,1′-inden]-3′-yl)-3-(3-methoxy-4-methyl-1-phenyl-1H-pyrazol-5-yl)urea]
8 | > 7.00 | Cc1c(-c2cnn(C)c2)nn(-c2ccccc2)c1NC(=O)N[C@@H]1c2cc(F)ccc2C2(CC2)[C@H]1O (relative stereo) [Example 63, 1-(1′,4-dimethyl-1-phenyl-1H,1′H-[3,4′-bipyrazol]-5-yl)-3-(trans-5′-fluoro-2′-hydroxy-2′,3′-dihydrospiro[cyclopropane-1,1′-inden]-3′-yl)urea]
9 | > 7.00 | Cc1c(-c2cnn(C)c2)nn(-c2ccccc2)c1NC(=O)N[C@@H]1c2ccc(F)cc2C2(CC2)[C@H]1O (relative stereo) [Example 64, 1-(1′,4-dimethyl-1-phenyl-1H,1′H-[3,4′-bipyrazol]-5-yl)-3-(trans-6′-fluoro-2′-hydroxy-2′,3′-dihydrospiro[cyclopropane-1,1′-inden]-3′-yl)urea]
10 | > 7.00 | Cc1c(NC(=O)N[C@@H]2c3ccccc3C(C)(C)C[C@H]2O)n(-c2ccccc2)[nH]c1=O (relative stereo) [Example 95, 1-(trans-2-hydroxy-4,4-dimethyl-1,2,3,4-tetrahydronaphthalen-1-yl)-3-(4-methyl-5-oxo-2-phenyl-2,5-dihydro-1H-pyrazol-3-yl)urea]
11 | > 7.00 | COc1nn(-c2ccccc2)c(NC(=O)N[C@@H]2c3ccccc3C(C)(C)C[C@H]2O)c1C (relative stereo) [Example 97, 1-(trans-2-hydroxy-4,4-dimethyl-1,2,3,4-tetrahydronaphthalen-1-yl)-3-(3-methoxy-4-methyl-1-phenyl-1H-pyrazol-5-yl)urea]

Source: patent publication US10351575B2, “Bicyclic urea, thiourea, guanidine and cyanoguanidine compounds useful for the treatment of pain” (Array BioPharma Inc., priority 2012, dated 2019)
